In paper PMC9654546, “Identification of an IGF2BP2-Targeted Peptide for Near-Infrared Imaging of Esophageal Squamous Cell Carcinoma” (Molecules, 2022):
Ends that are not written are not given here. Cy5 = Cy5 fluorescent dye

How the values were obtained:
KYSE-30 cells [1] = assay: Flow cytometry of cells incubated with Cy5 conjugated peptides; type: cell-based, human; conditions: Cy5 conjugated peptide 50 μM, 15 min, room temperature, 10,000 gated cells
Protocol: When the cells in the 6 cm dish were 80–90% grown, they were harvested with Accutase (Sigma-Aldrich, MO, USA) and incubated with Cy5 conjugated peptides at a concentration of 50 μM for 15 min at room temperature, protected from light. After incubation, the cells were washed 3 times with ice-cold PBS and resuspended in 200 µL of PBS. Flow cytometry was performed on a CytoFLEX LX flow cytometer (Beckman Coulter, IN, USA) and eventually, 10,000 gated cells were collected for analysis. The results were finally analyzed by flow cytometry using Flow Jo software (v7.6, BD Biosciences, OR, USA).

KYSE-30 cells [2] = assay: Immunofluorescence staining (confocal) of cells with Cy5 conjugated peptides; type: cell-based, human; conditions: IGF2BP2-positive KYSE-30 cells, fixed and permeabilised, Cy5 conjugated peptide 80 μM overnight at 4 °C
Protocol: Approximately 5 × 10^4 cells were seeded onto fibronectin-coated coverslips in 24-well plates and fixed with 4% paraformaldehyde until the cells reached about 50% confluence. After permeabilization with 0.5% Triton X-100 (Millipore, MA, USA) for 10 min, the cells were blocked with 5% BSA for 0.5 h and subsequently incubated with Cy5 conjugated peptides at a concentration of 80 μM overnight at 4 °C. The next day, 1 μg/mL of diaminophenyl indole (DAPI) was added to stain the nucleus after washing with phosphate-buffered saline (PBS). Thereafter, the coverslips were mounted with ProLong Gold anti-fade (Invitrogen P26930, CA, USA), and the visualizations were conducted using confocal laser-scanning microscopy (Zeiss LSM880, Oberkochen, Germany).

KYSE-30 xenografts = assay: Near-infrared fluorescence imaging and ex vivo biodistribution in KYSE-30 bearing xenograft models; parameters: species or system mice
Protocol: Human esophageal cancer cell lines EC-9706, EC-109, and TE-1 were acquired from the Institute of Basic Medical Science, Chinese Academy of Medical Sciences, whereas KYSE-30, KYSE-410, KYSE-450, and KYSE-520 were obtained from the DSMZ (Deutsche Sammlung von Mikroorganismen und Zellkulturen). All cells were maintained in an incubator containing a humid atmosphere of 5% CO2 at 37 °C. All cells were cultured in RPMI-1640 medium supplemented with 10% fetal bovine serum (FBS) and penicillin-streptomycin solution. Mice aged 4 weeks were purchased from Guangdong Medical Laboratory Animal Center (Guangdong, China). Subcutaneous tumor models were constructed by subcutaneously injection of about 1 × 10^7 cells with a 20% suspension of Matrigel (Corning, NY, USA). All animal experiments were performed under a protocol approved by the Animal Ethics Committee of The Fifth Affiliated Hospital of Sun Yat-sen University.
Mice bearing subcutaneous esophageal tumors were injected with an equivalent of 50 μg Cy5-peptide via a tail vein. After circulation, the mice were anesthetized with isoflurane, and fluorescence images were captured at different time points of 10 min, 1 h, 2 h, 4 h, and 6 h by an IVIS Spectrum (PerkinElmer, MA, USA) with an excitation wavelength of 640 nm and an emission wavelength of 670 nm. The region of interest (ROI) was manually sketched to calculate the intensity of the fluorescence as mean fluorescence intensity (MFI). In addition, the tumors and main organs (bladder, liver, heart, lungs, stomach, spleen, skin, kidneys, colon, muscles, bones, and blood) were dissected and imaged for biodistribution analysis.

[3] = target: recombinant IGF2BP2 protein (approximately 29 kDa) (human); assay: ELISA; phage ELISA; purified IGF2BP2 protein coated on a 96-well plate, phage clones after the third round of screening, OD at 450 nm
[4] = KYSE-30 xenograft mice, 50 μg Cy5-peptide via tail vein, ROI quantification, n = 3
[5] = ex vivo optical imaging of tumors and main organs 2 h postinjection, 50 μg i.v., n = 3

Row | Molecule | Peak shift in flow cytometric analysis (KYSE-30 cells [1]) | Binding / fluorescence in confocal immunocytochemistry (KYSE-30 cells [2]) | Binding to IGF2BP2-positive tumors (immunofluorescence of frozen tumor sections after imaging) (KYSE-30 xenografts; KYSE-30 tumor tissue resected after imaging) | TBRs over time (KYSE-30 xenografts; [4]) | Time at which mean fluorescence intensity (MFI) peaked (KYSE-30 xenografts; [4]) [h] | Tumor accumulation in NIRF imaging in comparison to C12-Cy5 (KYSE-30 xenografts; KYSE-30 xenograft mice, 50 μg Cy5-peptide via tail vein, different time points postinjection, n = 3) | Uptake in kidney relative to other organs (KYSE-30 xenografts; biodistribution, KYSE-30 xenograft mice) | Clearance route from biodistribution (KYSE-30 xenografts; [5]) | Enrichment in KYSE-30 tumors relative to organs (biodistribution) (KYSE-30 xenografts; [5]) | OD value (450 nm) relative to the control (times that of the control) [3]
1 | P12-Cy5: P12 peptide conjugated to arginine-penetrating peptide (RRRRRRRR) at the C-terminus and Cy5 fluorescent group at the N-terminus (Cy5-LSMPWSPTTYASRRRRRRRR; also: linker between P12 and R8 not defined) | peak shift | strong binding in the cytoplasm | strong binding | gradually increasing over time | 2 | significantly higher tumor accumulation | relatively higher in the kidney than in other organs, including the tumors | prominent renal clearance | high in all organs except the urinary organs | –
2 | LSMPWSPTTYAS [P12 peptide (…) displayed on phage] | – | – | – | – | – | – | – | – | – | 10
